Data: US20190352341A1, “MODIFIED PEPTIDES AND THEIR USE FOR TREATING SYSTEMIC LUPUS ERYTHEMATOSUS” (IMMUPHARMA FRANCE SA, priority 2018, published 2019)
“And” between values parts separate entries of the source, which are not always exact repeats. Equal entries are not always repeated. Numbered stars: 1 amine (or outer) side, 2 acyl side, 3 side chain; on linkers, the order of the positions; unused ones are H or OH. Square brackets hold non-standard residues; d marks the D form. Peptide text beside a SMILES is read from it. ξ: configuration not given here. X1 = CSCC[C@H](NC(=N)[C@H](Cc1c[nH]cn1)N[*:1])C(=O)[*:2]; pS = N[C@@H](COP(=O)(O)O)C(=O)O; Ile(3ξ) = CCC(C)[C@H](N)C(=O)O

Columns and labels:
[1] = system: Balb/c mice; test: 15-day ovalbumin-induced airway hypereosinophilia model, BAL cells; assay type: in vivo, mouse; parameters: Eosinophils / Neutrophils / T cells / B cells: unit not given here; settings: for B cells / Eosinophils / Macrophages / Neutrophils / T cells / Total cells: BAL
Protocol: The P140 phosphopeptide was solubilized in sterile water (Braun) and 10× concentrate sterile saline was added to adjust osmolarity to 300 mosm. Osmolarity was controlled with a micro osmometer (Loser, type 15) and validated (302 mosm).
The P140 phosphopeptide was used in vivo at the dose of 4 mg/kg by intranasal (i.n.) and intravenous (i.v.) routes. Control animals received equivalent volumes (1 ml/kg for i.n. and 2 ml/kg for i.v.) of saline (Table 6).
Nine-week-old male Balb/c mice were sensitized by intraperitoneal (i.p.) injections of a mixture containing 50 μg OVA (Sigma-Aldrich) and 2 mg alum (Sigma-Aldrich) in 0.1 ml saline. Mice were challenged by i.n. administration of 25 μl of OVA on day 5, then 25 μl of OVA and/or saline on day 12, 13 and 14. Mice were treated by i.v. injection (2 ml/kg) or i.n. administration (1 ml/kg) of P140 or solvent on day 9 (See FIG. 12).
[…] Performing Bronchoalveolar Lavage in the Mouse. Curr Protoc Mouse Biol 2:167-175). Mice were anaesthetized IP (Ketamine 150 mg/kg-Xylasine 10 mg/kg). Blood was collected from the heart, centrifuged at 10,000 g for 2 min and serum stored at −20° C. After semi-excision of the trachea, a plastic cannula was inserted, and airspace washed with 0.5 ml of 0.9% NaCl injected with a 1 ml syringe. This procedure was performed 10 times. The initial concentrated supernatant of the 2 first lavages (volume=2×0.5 ml administered, ˜0.5 ml recovered) was collected for cytokine measurements. The remaining BAL fluid was centrifuged (300 g for 5 min, 4° C.), and cell pellets pooled. The cell pellet was suspended in 500 μl of 0.9% NaCl and used for total cell counts evaluated on a Muse® Cell Analyser. Differential cell counts were assessed by flow cytometry (LSRII® cytometer, BD Bioscience). BAL cells were added with FCblock (0.5 μl, 553142, BD Bioscience) in a black microplate, incubated for 20 min at room temperature. Then, marker antibodies were added: CD11c-FITC (557400, BD bioscience), Gr-1-Pe-eFluor610 (61-5931-82, eBioscience), CD11b-APC-Cy7 (557657, BD bioscience), CD45-AlexaFluor700 (103128, BioLegend), CD3-BV605 (564009, BD bioscience), CD19-PE-Cy7 (552854, BD bioscience). Antibodies were incubated with BAL cells for 30 min at room temperature before DAPI (5 μl, BD bioscience) addition, and flow cytometry was performed immediately.
Data are presented as means±SEM. Differences between groups were tested for statistical significance using one-way ANOVA followed by Tukey's post-test. For statistical analysis, control groups 1, 2 and 3 were pooled.

[2] = system: Lewis rats; test: Chronic-EAN rat model for CIDP; assay type: in vivo; settings: P140 100 μg/rat i.p., vs untreated rats
Protocol: Male Lewis rats, 7-8 weeks old, weighing 250-270 g, purchased from Charles River (Domaine des Oncins, L'Arbresle, France) were used. To induce chronic-EAN (CIDP), rats were immunized with S-palm-P0(180-199) peptide by subcutaneous injection at the base of the tail of 200 μL of an inoculum containing 200 μg of peptide (Ac(palm)KRGRQTPVLYAMLDHSRS), and 0.5 mg of Mycobacterium tuberculosis (strain H37 RA, Difco, Detroit, Mich., USA) emulsified in 100 μL of saline solution and 100 μL of Freund's incomplete adjuvant (SIGMA-Aldrich, St-Quentin Fallavier, France).
Body weight and clinical scores are assessed daily until 60 days post-immunization (dpi). Severity of paresis is graded as follows: 0=no illness; 1=flaccid tail; 2=moderate paraparesis; 3=severe paraparesis; 4=tetraparesis; 5=death.
100 μg/rat P140 peptide in 500 μL water/saline (1:10) were intraperitoneally injected at 5, 7, 9, 13 dpi and 3 times per week from 22 dpi until the end of the study.

[3] = OVA challenge, P140-IN 4 mg/kg day 9, individual mice NL415-2_6 to _20
[4] = OVA challenge, P140-IN, 4 mg/kg day 9, individual mice NL415-2_12 to _22
[5] = saline challenge, P140-IN 4 mg/kg day 9, individual mice NL415-2_2, _8
[6] = saline challenge, P140-IN, 4 mg/kg day 9, individual mice NL415-2_4, _15
[7] = i.v. 4 mg/kg, OVA-challenged mice

CCC(C)[C@H](NC(=O)[C@H](Cc1ccccc1)NC(=O)[C@H](C)NC(=O)[C@H](Cc1ccc(O)cc1)NC(=O)CNC(=O)[C@H](CCCNC(=N)N)NC(=O)[C@@H]1CCCN1C(=O)[C@H](CCCCN)NC(=O)CNC(=O)[C@H](COP(=O)(O)O)NC(=O)[C@H](CCCNC(=N)N)NC(=O)[C@H](CCCCN)NC(=O)[C@H](CO)NC(=O)[C@H](Cc1ccc(O)cc1)NC(=O)[C@@H](NC(=O)[C@H](CCSC)NC(=N)[C@H](Cc1c[nH]cn1)NC(=O)[C@@H](NC(=O)[C@@H](N)CCCNC(=N)N)C(C)CC)C(C)C)C(=O)N[C@@H](CCC(=O)O)C(=O)N[C@@H](Cc1ccc(O)cc1)C(=O)O (stereo partly shown) [Compound P140] (H-R[Ile(3ξ)][X1]VYSKR[pS]GKPRGYAF[Ile(3ξ)]EY-OH)
B cells [1, 3]: 25 606 and 32 251 and 26 562 and 23 383 and 33 156 and 13 236
Eosinophils [1, 3]: 490 306 and 497 948 and 737 671 and 839 841 and 792 249 and 615 171
Macrophages [1, 3]: 271 110 and 322 340 and 247 391 and 538 954 and 436 210 and 286 509
Neutrophils [1, 3]: 57 542 and 60 787 and 62 354 and 95 173 and 47 346 and 65 366
T cells [1, 3]: 44 036 and 61 800 and 73 159 and 118 360 and 101 951 and 61 293
Total cells [1, 3]: 862 995 and 942 875 and 1 120 576 and 1 592 328 and 1 377 755 and 1 028 339
B cells [1, 4]: 10 219 and 15 209 and 14 027 and 17 417 and 11 003 and 10 922
Eosinophils [1, 4]: 425 928 and 272 763 and 473 105 and 470 027 and 327 186 and 429 469
Macrophages [1, 4]: 439 265 and 442 055 and 244 523 and 293 070 and 342 134 and 379 565
Neutrophils [1, 4]: 42 783 and 21 442 and 59 616 and 76 867 and 40 275 and 31 756
T cells [1, 4]: 41 744 and 43 881 and 32 677 and 55 502 and 28 857 and 45 030
Total cells [1, 4]: 949 720 and 780 142 and 809 921 and 895 467 and 738 452 and 885 821
B cells [1, 5]: 112 and 242
Eosinophils [1, 5]: 168 and 103
Macrophages [1, 5]: 388 102 and 434 029
Neutrophils [1, 5]: 56 and 61
T cells [1, 5]: 4 135 and 4 180
Total cells [1, 5]: 392 461 and 438 573
B cells [1, 6]: 70 and 266
Eosinophils [1, 6]: 110 and 166
Macrophages [1, 6]: 335 658 and 335 200
Neutrophils [1, 6]: 259 and 133
T cells [1, 6]: 5311 and 4 790
Total cells [1, 6]: 341 738 and 340 389
Number of cells recovered in BAL fluid as compared to vehicle (saline) ([1]; i.n. or i.v., control mice challenged with saline): little effect per se
Inflammatory cell recruitment in BAL ([1]; i.n. route, OVA-challenged mice): little effect
B cells recruitment in BAL, change vs OVA group [1, 7]: −42%
Eosinophil recruitment in BAL, change vs OVA group [1, 7]: −50%
T cells recruitment in BAL, change vs OVA group [1, 7]: −66%
Neutrophils recruitment in BAL, change vs OVA group ([1]; i.v. 4 mg/kg, OVA-challenged mice, not significant): −38%
Chronicity of the disease [2]: seems abolish the chronicity of the disease
Maximal clinical scores [2]: decreased the maximal clinical scores
Onset of the disease [2]: delayed the onset of the disease
Weight loss during the disease course [2]: less important
